Reference: the NIST ThermoML archive (doi:10.1021/je060271a)
Several values for one entry are separate records, joined by “and”; a condition that tells them apart may be missing. Equal values may be shown once.

Details: Liquid, Vibrating tube method

CCCCCCCC(=O)OCC(COC(=O)CCCCCCC)(COC(=O)CCCCCCC)COC(=O)CCCCCCC [pentaerythritol tetraoctanoate]
Details | mass density
303.14 K, 4098.2 kPa | 957.9 kg/m3
303.14 K, 4118.3 kPa | 957.9 kg/m3
303.14 K, 4135.4 kPa | 957.9 kg/m3
303.14 K, 4156 kPa | 957.9 kg/m3
303.14 K, 4172.8 kPa | 957.9 kg/m3
303.14 K, 4194.3 kPa | 958 kg/m3
303.14 K, 4211.9 kPa | 958 kg/m3
303.14 K, 4232.9 kPa | 958.1 kg/m3
303.14 K, 4250 kPa | 958 kg/m3
303.14 K, 4271.5 kPa | 958.1 kg/m3
303.14 K, 4289.7 kPa | 958 kg/m3
303.14 K, 4414.6 kPa | 958.1 kg/m3
303.14 K, 4495.8 kPa | 958.1 kg/m3
303.14 K, 4506.9 kPa | 958.2 kg/m3
303.14 K, 4516.1 kPa | 958.2 kg/m3
303.14 K, 4528.5 kPa | 958.3 kg/m3
303.14 K, 4565.1 kPa | 958.2 kg/m3
303.14 K, 4883.3 kPa | 958.4 kg/m3
303.14 K, 4909.3 kPa | 958.4 kg/m3
303.14 K, 4931.2 kPa | 958.5 kg/m3
303.14 K, 4958.7 kPa | 958.5 kg/m3
303.14 K, 5309.4 kPa | 958.7 kg/m3
303.14 K, 5618.4 kPa | 958.8 kg/m3
303.14 K, 5650.1 kPa | 958.8 kg/m3
303.14 K, 5689.5 kPa | 958.9 kg/m3
303.14 K, 5713.9 kPa | 959 kg/m3
303.14 K, 5742.8 kPa | 959 kg/m3
303.14 K, 6420.5 kPa | 959.2 kg/m3
303.14 K, 6514.5 kPa | 959.4 kg/m3
303.14 K, 6535.9 kPa | 959.5 kg/m3
303.14 K, 6561.5 kPa | 959.4 kg/m3
303.14 K, 6885.2 kPa | 959.7 kg/m3
303.14 K, 6937.5 kPa | 959.7 kg/m3
303.14 K, 6965.9 kPa | 959.7 kg/m3
303.14 K, 6989.7 kPa | 959.7 kg/m3
303.14 K, 7018.5 kPa | 959.7 kg/m3
303.14 K, 7042.7 kPa | 959.8 kg/m3
303.14 K, 7072.4 kPa | 959.8 kg/m3
303.14 K, 7331.7 kPa | 960 kg/m3
303.14 K, 7358.2 kPa | 959.8 kg/m3
303.14 K, 7974.8 kPa | 960.4 kg/m3
303.14 K, 8046.4 kPa | 960.3 kg/m3
303.14 K, 8085.7 kPa | 960.5 kg/m3
303.14 K, 8120 kPa | 960.5 kg/m3
303.14 K, 8830.9 kPa | 960.7 kg/m3
303.14 K, 9313 kPa | 961.2 kg/m3
303.14 K, 9339.7 kPa | 961.2 kg/m3
303.14 K, 11022 kPa | 962.1 kg/m3
303.14 K, 11048 kPa | 962.2 kg/m3
303.14 K, 13652 kPa | 963.7 kg/m3
303.14 K, 13735 kPa | 963.7 kg/m3
303.14 K, 13777 kPa | 963.7 kg/m3
303.14 K, 13855 kPa | 963.8 kg/m3
303.14 K, 13898 kPa | 963.8 kg/m3
303.14 K, 14022 kPa | 964 kg/m3
303.15 K, 104.6 kPa | 955.3 kg/m3 and 955.4 kg/m3
303.15 K, 104.7 kPa | 955.5 kg/m3 and 955.4 kg/m3
303.15 K, 104.9 kPa | 955.4 kg/m3
303.15 K, 105.1 kPa | 955.4 kg/m3
303.15 K, 106.7 kPa | 955.3 kg/m3
303.15 K, 113.4 kPa | 955.5 kg/m3
303.15 K, 119.7 kPa | 955.5 kg/m3
303.15 K, 123.3 kPa | 955.5 kg/m3
303.15 K, 127.9 kPa | 955.5 kg/m3
303.15 K, 133.8 kPa | 955.5 kg/m3
303.15 K, 141.4 kPa | 955.5 kg/m3
303.15 K, 151 kPa | 955.4 kg/m3
303.15 K, 163.8 kPa | 955.4 kg/m3
303.15 K, 180.7 kPa | 955.5 kg/m3
303.15 K, 203.5 kPa | 955.6 kg/m3
303.15 K, 234.4 kPa | 955.6 kg/m3
303.15 K, 272.8 kPa | 955.5 kg/m3
303.15 K, 306.2 kPa | 955.6 kg/m3
303.15 K, 333.5 kPa | 955.7 kg/m3
303.15 K, 351.9 kPa | 955.6 kg/m3
303.15 K, 363.2 kPa | 955.6 kg/m3
303.15 K, 377.9 kPa | 955.7 kg/m3
303.15 K, 393.4 kPa | 955.6 kg/m3
303.15 K, 410.1 kPa | 955.7 kg/m3
303.15 K, 427 kPa | 955.6 kg/m3
303.15 K, 438.6 kPa | 955.6 kg/m3
303.15 K, 450.2 kPa | 955.6 kg/m3
303.15 K, 462.7 kPa | 955.6 kg/m3
303.15 K, 474.7 kPa | 955.6 kg/m3
303.15 K, 487.9 kPa | 955.7 kg/m3
303.15 K, 499.6 kPa | 955.6 kg/m3
303.15 K, 514.7 kPa | 955.8 kg/m3
303.15 K, 529.5 kPa | 955.5 kg/m3
303.15 K, 545.8 kPa | 955.7 kg/m3
303.15 K, 562.8 kPa | 955.6 kg/m3
303.15 K, 580.7 kPa | 955.7 kg/m3
303.15 K, 600.2 kPa | 955.7 kg/m3
303.15 K, 620 kPa | 955.7 kg/m3
303.15 K, 635.4 kPa | 955.8 kg/m3
303.15 K, 653.7 kPa | 955.7 kg/m3
303.15 K, 673.1 kPa | 955.8 kg/m3
303.15 K, 690.2 kPa | 955.8 kg/m3
303.15 K, 711.7 kPa | 955.8 kg/m3
303.15 K, 734 kPa | 955.8 kg/m3
303.15 K, 753.9 kPa | 955.8 kg/m3
303.15 K, 778.9 kPa | 955.8 kg/m3
303.15 K, 805.3 kPa | 955.7 kg/m3
303.15 K, 828.4 kPa | 956 kg/m3
303.15 K, 856.4 kPa | 956 kg/m3
303.15 K, 878.8 kPa | 956 kg/m3
303.15 K, 896.7 kPa | 955.9 kg/m3
303.15 K, 918.8 kPa | 955.9 kg/m3
303.15 K, 937.7 kPa | 955.8 kg/m3
303.15 K, 961.3 kPa | 955.9 kg/m3
303.15 K, 986.7 kPa | 956 kg/m3
303.15 K, 1012 kPa | 956 kg/m3
303.15 K, 1034.8 kPa | 956.1 kg/m3
303.15 K, 1062.9 kPa | 956 kg/m3
303.15 K, 1087.6 kPa | 956.1 kg/m3
303.15 K, 1118 kPa | 956.1 kg/m3
303.15 K, 1149.9 kPa | 956 kg/m3
303.15 K, 1183.3 kPa | 956 kg/m3
303.15 K, 1212.4 kPa | 956.1 kg/m3
303.15 K, 1248.7 kPa | 956.1 kg/m3
303.15 K, 1287.1 kPa | 956.2 kg/m3
303.15 K, 1320.4 kPa | 956.1 kg/m3
303.15 K, 1362.3 kPa | 956.1 kg/m3
303.15 K, 1407.7 kPa | 956.3 kg/m3
303.15 K, 1447.7 kPa | 956.2 kg/m3
303.15 K, 1500.9 kPa | 956.2 kg/m3
303.15 K, 1544.9 kPa | 956.4 kg/m3
303.15 K, 1600.2 kPa | 956.4 kg/m3
303.15 K, 1657.7 kPa | 956.3 kg/m3
303.15 K, 1716.5 kPa | 956.4 kg/m3
303.15 K, 1763.5 kPa | 956.4 kg/m3
303.15 K, 1789.9 kPa | 956.6 kg/m3
303.15 K, 1809.7 kPa | 956.6 kg/m3
303.15 K, 1826.2 kPa | 956.5 kg/m3
303.15 K, 1847 kPa | 956.6 kg/m3
303.15 K, 1864.2 kPa | 956.5 kg/m3
303.15 K, 1884.7 kPa | 956.4 kg/m3
303.15 K, 1906.9 kPa | 956.5 kg/m3
303.15 K, 1925.8 kPa | 956.5 kg/m3
303.15 K, 1948 kPa | 956.5 kg/m3
303.15 K, 1967.5 kPa | 956.7 kg/m3
303.15 K, 1990.5 kPa | 956.6 kg/m3
303.15 K, 2013.8 kPa | 956.6 kg/m3
303.15 K, 2034.1 kPa | 956.6 kg/m3
303.15 K, 2058.5 kPa | 956.7 kg/m3
303.15 K, 2083.2 kPa | 956.6 kg/m3
303.15 K, 2104.7 kPa | 956.6 kg/m3
303.15 K, 2130.4 kPa | 956.7 kg/m3
